The values that follow come from PMC12392035, “Development of Carborane-Based Benzothiazole Analogues as Cannabinoid Receptor Type 2 (CB2R) Ligands” (ACS Omega, 2025).

Experiment [1] has as its target T1, human CB1R (cannabinoid receptor type 1) (Homo sapiens, UniProt P21554).
T1 construct: gene CNR1; stably transfected in CHO cells; crude membrane homogenates
The experiment in a line: competitive radioligand binding, CHO membranes. As to conditions: [3H]SR141716A displacement; mean of two values; read-out: KiCB1R (nM) mean ^a. The text has this:
competitive radioligand binding, CHO membranes on human CB1R (cannabinoid receptor type 1)

Experiment [2] has as its target T2, human CB2R (cannabinoid receptor type 2) (Homo sapiens, UniProt P34972).
T2 construct: gene CNR2; stably transfected in CHO cells; crude membrane homogenates
Put plainly: competitive radioligand binding, CHO membranes. Particulars: [3H]WIN55212-2 displacement; mean of two values; read-out: KiCB2R (nM) mean ^a. From the text: competitive radioligand binding, CHO membranes on human CB2R (cannabinoid receptor type 2)

T1 sequence (P21554 whole entry): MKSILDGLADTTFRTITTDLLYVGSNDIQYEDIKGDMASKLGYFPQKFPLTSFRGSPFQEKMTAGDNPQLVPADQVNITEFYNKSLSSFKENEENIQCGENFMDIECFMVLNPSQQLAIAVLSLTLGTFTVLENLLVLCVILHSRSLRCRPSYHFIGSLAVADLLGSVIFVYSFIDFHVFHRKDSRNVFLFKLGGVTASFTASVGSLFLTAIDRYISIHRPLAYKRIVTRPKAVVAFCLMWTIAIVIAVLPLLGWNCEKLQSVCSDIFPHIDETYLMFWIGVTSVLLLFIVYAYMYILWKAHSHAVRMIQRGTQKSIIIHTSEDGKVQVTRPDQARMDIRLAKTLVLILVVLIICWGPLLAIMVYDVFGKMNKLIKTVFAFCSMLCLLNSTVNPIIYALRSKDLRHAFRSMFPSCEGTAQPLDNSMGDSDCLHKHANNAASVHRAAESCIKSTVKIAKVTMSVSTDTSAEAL
T2 sequence (P34972 whole entry): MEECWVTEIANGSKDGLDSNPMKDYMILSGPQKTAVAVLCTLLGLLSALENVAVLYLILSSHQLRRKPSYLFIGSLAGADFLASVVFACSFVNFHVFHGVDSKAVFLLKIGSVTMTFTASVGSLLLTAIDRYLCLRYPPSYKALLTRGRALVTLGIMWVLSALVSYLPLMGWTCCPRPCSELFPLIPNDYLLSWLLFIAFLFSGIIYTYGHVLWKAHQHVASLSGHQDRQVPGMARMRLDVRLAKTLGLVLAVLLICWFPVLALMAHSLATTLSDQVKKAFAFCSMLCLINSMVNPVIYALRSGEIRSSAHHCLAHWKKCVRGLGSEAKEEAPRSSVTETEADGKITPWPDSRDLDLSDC

With “(Z)-N-(6-Methoxy-3-(2-methoxyethyl)-benzo[d]-thiazol-2(3H)-ylidene)(1,2-closo-dicarba-dodecaborane)-carboxamide [2o]”, the Ki in experiment [1] was determined as 76800 nM; in experiment [2], 7.37 nM.

As to “(Z)-N-(6-Methoxy-3-(2-methoxyethyl)-benzo[d]-thiazol-2(3H)-ylidene)(1,7-closo-dicarba-dodecaborane)-carboxamide [2m]”, the results for the Ki in experiment [1] and in experiment [2] were 42300 nM and 2.47 nM, respectively.

Regarding “(Z)-N-(6-Methoxy-3-(2-methoxyethyl)-benzo[d]-thiazol-2(3H)-ylidene)(1,12-closo-dicarba-dodecaborane)-carboxamide [2p]”, the Ki in experiment [1] was determined as 8670 nM; in experiment [2] it was 3.17 nM.
